Data published in patent US12715915B2, “Gout flare prevention methods using IL-1β blockers” (priority 2022, dated 2026).
“Also recorded” adds a separate entry of the source. Read-outs that look alike come from different tables or passages of the source.

Assays:
[1] = target: T1, IL-1α (Homo sapiens, UniProt P01583); settings: cited from earlier work
T1 sequence (P01583 113-271): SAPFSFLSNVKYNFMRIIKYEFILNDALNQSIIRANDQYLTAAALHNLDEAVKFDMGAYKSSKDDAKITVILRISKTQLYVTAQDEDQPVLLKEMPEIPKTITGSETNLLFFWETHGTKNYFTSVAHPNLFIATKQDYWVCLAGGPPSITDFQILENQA

[2] = target: IL-1 receptor antagonist (IL-1ra) (Homo sapiens, UniProt P18510); settings: cited from earlier work
[3] = target: human IL1β (Homo sapiens, UniProt P01584); settings: blocks interaction with IL-1 receptors; cited from earlier work
[4] = tested on: adult uncontrolled gout patients; test: MIRROR-C: open-label trial of canakinumab prophylaxis to prevent gout flares when initiating pegloticase+MTX; format: in vivo, human
Excerpt: 86. Pegloticase plus methotrexate (approved by FDA in July 2022) is effective at reducing signs/symptoms of uncontrolled gout. In the pivotal trial (MIRROR RCT) the most common adverse event was gout flares which occurred in 54% of patients at month 1 on combination pegloticase and methotrexate. The purpose of this study is to determine if canakinumab is effective for the prevention of gout flares in subjects scheduled to begin KRYSTEXXA® (KRY) (pegloticase) infusions in combination with methotrexate. The most common adverse event that occurs in patients being treated with KRY and methotrexate are gout flares which occurred in 54% of patients at month 1 in the MIRROR RCT. Herein we use canakinumab pretreatment (without corticosteroids, NSAIDs, or colchicine) to reduce the number of gout flares.
87 Canakinumab is the drug that is tested herein. It is currently approved by the FDA for the treatment of periodic fever syndromes and active systemic juvenile idiopathic arthritis (SJIA). However, Canakinumab is considered to be experimental in this study. Subjects scheduled (by their treating provider) to receive pegloticase (with methotrexate) receive a single 150 mg injection of subcutaneous canakinumab one week prior to the first scheduled pegloticase infusion. The combination of the drugs is experimental. As shown herein,
88. Subjects scheduled (by their treating provider) to receive pegloticase (with methotrexate) receive a single 150 mg injection of subcutaneous canakinumab one week prior to the first scheduled pegloticase infusion. At each infusion, subjects are assessed for gout flares. Canakinumab are provided by the study to subjects without charge. Pegloticase, methotrexate, and other medications are obtained through standard means (patient insurance, patient assistance, etc.) as ordered by treating provider. […] It is assumed that mobilization of gout crystals at the initiation of therapy results in gout flares through the IL-1 inflammasome pathway. A goal of prophylaxis is to reduce the number of flares with initiation. […]
89. […] On the day of KRYSTEXXA® administration (i.e., Day 0), the blood pressure, respiratory rate, temperature, and heart rate of patients are measured and patients receive a first administration of KRYSTEXXA® delivered as an intravenous (i.v.) infusion. Every two weeks thereafter during the study (i.e., Day 14, Day 28, Day 42, Day […], Day 98, Day 112, Day 126, Day 140, Day 154, Day 168; also called Week 2, Week 4, Week 6, Week 8, Week 10, Week 12, Week 14, Week 16, Week 18, Week 20, Week 22, Week 24) the blood pressure, respiratory rate, temperature, and heart rate of patients are measured and patients report any gout flares. […]

[5] = tested on: gout patients initiating allopurinol; settings: cited from earlier work; for risk of gout flares during allopurinol initiation: in vivo

Sequence of IL-1 receptor antagonist (IL-1ra) (P18510 26-177): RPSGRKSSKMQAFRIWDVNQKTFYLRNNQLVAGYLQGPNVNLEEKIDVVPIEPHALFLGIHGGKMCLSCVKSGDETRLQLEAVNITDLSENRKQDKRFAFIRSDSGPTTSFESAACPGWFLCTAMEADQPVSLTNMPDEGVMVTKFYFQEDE

## canakinumab
[1]
  binding to IL-1α: does not bind
[2]
  binding to IL-1 receptor antagonist (IL-1ra): does not bind
[3]
  binding to human IL1β: binds to human IL1β and neutralizes its activity
[4]; canakinumab 150 mg s.c.
  time to resolution of active gout flares after administration: ≤ 48 h
[4]; canakinumab prophylaxis without corticosteroids, initiation of pegloticase with methotrexate
  treated patients in whom gout flares were prevented: 100%
[4]; single 150 mg dose, without CS
  safety of canakinumab prophylaxis with pegloticase+MTX: no new safety signals; also recorded: did not compromise efficacy or safety
[4]; single 150 mg s.c. dose 7 days before first pegloticase infusion, no CS, NSAIDs or colchicine, assessed every 2 wks for 6 mos
  new gout flares after canakinumab prophylaxis: No new gout flares; also recorded: prevented gout flares in all patients
[5]
  risk of gout flares during allopurinol initiation: reduces the risk of flares
[5]; listed as Canakinumab
  risk of gout flares during allopurinol initiation: can reduce subsequent flares
[5]; single dose ≥50 mg, initiating allopurinol
  prophylaxis against flares compared to colchicine: superior prophylaxis
